Consider 8 molecules from patent publication US20260021193A1, “IMMUNOCONJUGATES AND METHODS” (Immunome, Inc., priority 2022, published 2026).

A short description of data set [1]: Human hepatocyte clearance (HHEP CL). Further details: CLint scaled / half-life: dose or concentration left out as unconfirmed. The note with it: both sexes, human, hepatocytes. The format is in vitro ADME. Here is the method: Suspensions of human hepatocytes (from 10 mixed gender human donors, final concentration 0.5×10^6 cell/mL) in Williams' E medium were incubated for 90 min with a test compound (0.90% acetonitrile and 0.10% DMSO, final concentration […]) and positive controls (7-Ethoxycoumarin, 7-Hydroxycoumarin, 0.90% acetonitrile and 0.10% DMSO, final concentration […]), with constant shaking at about 600 rpm at 37° C. in an incubator at 5% CO2 and 95% humidity. The total volume of incubation was 200 μl. A sample ([…]) was taken out at T0, 15, 30, 60 and 90 min, which was added intermediately to the ice-cold stop solution (acetonitrile with 200 ng/mL of to butamide and labetalol as internal standard) (125 μl), and vortexed at 500 rpm for 10 min, centrifuged at 3220×g for 20 min at 4° C. Analytical plates were sealed and stored at 4° C. until LCMS analysis. Viability of hepatocytes at pre-incubation was determined to be 84.5%.
(§1) Human liver microsome clearance assay assess metabolism by the cytochrome P450 system (phase I enzymes). These enzymes oxidize substrates by incorporating oxygen atoms into hydrocarbons, thus causing the introduction of hydroxyl groups, or N- O- and S-dealkylation of substrates and forming more polar products easier to be cleared. Human hepatocyte clearance assay measures more broadly the overall cellular metabolism of the test compound (phase I and phase II enzyme pathways). Phase II enzymes catalyze the conjugation reaction of xenobiotic metabolites and charged species, such as glutathione, sulfate, glycine, or glucuronic acid to form even more polar compounds for easier clearance.

In the next data set the test system is Jeko-1. In words: CTG assay of payloads, Jeko-1 cells. Format: cell-based, human. The note with it: Homo sapiens, JeKo-1; Table 1; 72 h, CellTiter-Glo. The source says:
(§2) The CTG assay is a method of determining the number of viable cells in culture based on quantitation of the ATP present, an indicator of metabolically active cells. The cell assay requires the addition of a single reagent, Cell Titer Glo, in which cells are lysed and generation of a luminescent signal is produced. The luminescent signal is proportional to the amount of ATP present. The amount of ATP is directly proportional to the number of cells present in culture. For this assay, cells were ensured to be in log-phase for either Jeko-1 or MDA-MB-468. Cells were transferred to 96 wells and treated with compounds in three-fold serial dilution starting from […] (10 points dilution), for 72 h. Cell viability was analyzed with CellTiter-Glo® Luminescent Cell Viability Assay (Promega) following manufactures' instruction. Percentage of viable cells in each compound concentration was determined by normalizing with the luminescence of vehicle control and plotted into percentage of viability versus dose response curve by nonlinear fit in GraphPad Prism software.
(In general: Cellular ATP, detected with luciferase, serves as a proxy for viable cell number.)

A short description of data set [2]: PAMPA (Parallel Artificial Membrane Permeability Assay). The format is physicochemical. Further details: dose or concentration left out as unconfirmed. From the text:
PAMPA is a method which determines the permeability of substances from a donor compartment, through a lipid-infused artificial membrane into an acceptor compartment. See Ottaviani, G.; Martel, S.; Carrupt, P-A. “Parallel Artificial Membrane Permeability Assay: A New Membrane for the Fast Prediction of Passive Human Skin Permeability”, Journal of Medicinal Chemistry, 2006, 49 (13), 3948-3954). A multi-well microtitre plate is used for the donor and a membrane/acceptor compartment is placed on top; the whole assembly is commonly referred to as a “sandwich”. At the beginning of the test, the drug is added to the donor compartment, and the acceptor compartment is drug-free. After an incubation period which may include stirring, the sandwich is separated, and the amount of drug is measured in each compartment. Mass balance allows calculation of drug that remains in the membrane.
The PAMPA was performed by Pion Inc using the GIT-0 lipid and 5 mM donor solution in pH 5.0 and pH 7.4 PRISMA buffer (containing 0.05% DMSO). The higher PAMPA data has been associated with better bystander killing. (Ogitani Y.; Hagihara K.; Oitate, M.; Naito, H.; Agatsuma T. “Bystander killing effect of DS-8201a, a novel anti-human epidermal growth factor receptor 2 antibody-drug conjugate, in tumors with human epidermal growth factor receptor 2 heterogeneity” Cancer Science, 2016, 107 (7), 1039-1046).
On the technique in general: PAMPA measures passive passage across an artificial lipid membrane.

A short description of data set [3]: Human liver microsome clearance (HLM CL). Format: in vitro ADME. Further details: CLint scaled / half-life: dose or concentration left out as unconfirmed. The note with it: human, microsomes. The procedure: Working solution was prepared by adding 5 μL of compound and control stock solution (10 mM in dimethyl sulfoxide, DMSO) to 495 μL of acetonitrile (ACN) (intermediate solution concentration: 100 μM, 99% CAN and 1% DMSO. The appropriate concentrations of microsome working solutions were prepared in 100 mM potassium phosphate buffer. After reaction plates containing mixtures of compound and microsomes were pre-incubated at 37° C. for 10 min, […] of 2 mM of NADPH and 2 mM of MgCl2 solution was added to start the reaction. The final concentrations of incubation medium were as follows: microsome—0.5 mg protein/mL, test compound/control […], NADPH—1 mM, MgCl2—1 mM, acetonitrile 0.99%, DMSO 0.01%. Incubations were performed at 37° C. for 60 min. Samples were taken out at T0, T5, T15, T30, T45 and T60, which was added intermediately to the ice-cold stop solution (acetonitrile with 200 ng/mL of to butamide and labetalol as internal standard) (125 μl), shaken for 10 min, centrifuged at 4000 rpm for 20 min at 4° C. Analytical plates were analyzed by LCMS.
as §1
On the technique in general: Microsomes from liver hold many membrane-bound enzymes, among them those of drug oxidation.

In another data set the test system is MDA-MB-468. In words: CTG assay of payloads, MDA-MB-468 cells. Format: cell-based, human. The note with it: Homo sapiens, MDA-MB-468; Table 1; 72 h, CellTiter-Glo.
Excerpt: as §2

Structures can show the parent of a compound that is named as a salt.

In general, CLint scaled refers to the capacity of the preparation to metabolise the compound, expressed as a volume cleared per time. The half-life is how long it takes for the measured level to halve. By IC50 is commonly meant the point on the concentration scale where inhibition reaches its midpoint. Usually Papp stands for a coefficient for how fast a substance crosses the barrier. As to `CC[C@@]1(O)C(=O)OCc2c1cc1n(c2=O)Cc2c-1nc1cc(F)c(C)c3c1c2[C@H](CO)CC3` (single isomer, unassigned) [Compound 1-16], the CLint scaled stood at 33 mL/min/kg in data set [1] and 44 mL/min/kg in data set [3]. Moreover, the half-life in data set [1] came out at 117 min; in data set [3], 28 min. Besides, the figures for the IC50 with Jeko-1 and with MDA-MB-468 were 0.79 nM and 7.2 nM, respectively. In addition, the Papp in data set [2] (pH 5) amounted to 40.4 ×10⁻⁶ cm/s; in data set [2] (pH 7.4) it was 8.5 ×10⁻⁶ cm/s.

Regarding `CC[C@@]1(O)C(=O)OCc2c1cc1n(c2=O)Cc2c-1nc1cc(F)c(C)c3c1c2[C@](C)(CO)CC3` (single isomer, unassigned) [Compound 3-27], the CLint scaled in data set [1] worked out at 62.4 mL/min/kg; in data set [3], 128 mL/min/kg. In addition, the results for the half-life in data set [1] and in data set [3] were 62 min and 9.7 min, respectively. Besides, the values for the IC50 in the data set on Jeko-1 and with MDA-MB-468 were 2.1 nM and 18.6 nM, respectively. Besides, the Papp in data set [2] (pH 5) came out at 62.2 ×10⁻⁶ cm/s; in data set [2] (pH 7.4), 8.5 ×10⁻⁶ cm/s.

With `CC[C@@]1(O)C(=O)OCc2c1cc1n(c2=O)Cc2c-1nc1cc(F)c(C)c3c1c2C(CO)(CO)CC3` [Compound 2-20, (S)-9-ethyl-5-fluoro-9-hydroxy-1,1-bis(hydroxymethyl)-4-methyl-2,3,12,15-tetrahydrobenzo [de]pyrano[3′,4′:6,7]indolizino[1,2-b]quinoline-10,13(1H,9H)-dione], the CLint scaled in data set [1] came out at 24 mL/min/kg; in data set [3], 46 mL/min/kg. Besides, the half-life in data set [1] amounted to 161 min; in data set [3], 27 min. Also, the IC50 is 40.8 nM in the data set with Jeko-1 and 351 nM in the data set on MDA-MB-468.

In the case of `CC[C@@]1(O)C(=O)OCc2c1cc1n(c2=O)Cc2c-1nc1cc(F)c(C)c3c1c2[C@](C)(N1CC[C@@H](O)C1)CC3` (single isomer, unassigned) [Compound 5-40], the CLint scaled was 102 mL/min/kg in data set [1] and 238 mL/min/kg in data set [3]. For the same molecule, the figures for the half-life in data set [1] and in data set [3] were 38 min and 5.2 min, respectively. Besides, the values for the IC50 in the data set with Jeko-1 and in the data set on MDA-MB-468 were 10 nM and 69.1 nM, respectively. Besides, the Papp in data set [2] (pH 5) worked out at 52.2 ×10⁻⁶ cm/s; in data set [2] (pH 7.4) it was 6 ×10⁻⁶ cm/s.

On to `CC[C@@]1(O)C(=O)OCc2c1cc1n(c2=O)Cc2c-1nc1cc(F)c(C)c3c1c2[C@](C)(N1CC[C@H](O)C1)CC3` (single isomer, unassigned) [Compound 5-41], for which the CLint scaled in data set [1] was determined as 49.8 mL/min/kg; in data set [3] it was 92.5 mL/min/kg. Besides, the half-life in data set [1] came out at 77 min; in data set [3] it was 13.5 min. Moreover, the figures for the IC50 in the data set on Jeko-1 and with MDA-MB-468 were 11.6 nM and 92.2 nM, respectively. The Papp turned out to be 53.5 ×10⁻⁶ cm/s in data set [2] (pH 5) and 6.6 ×10⁻⁶ cm/s in data set [2] (pH 7.4).

For `CC[C@@]1(O)C(=O)OCc2c1cc1n(c2=O)Cc2c-1nc1cc(F)c(C)c3c1c2[C@@H](CO)CC3` (single isomer, unassigned) [Compound 1-17], the CLint scaled in data set [1] was found to be 17.9 mL/min/kg; in data set [3] it was 53.2 mL/min/kg. For the same molecule, the half-life in data set [1] came out at 215 min; in data set [3], 23.5 min. Moreover, the IC50 in the data set on Jeko-1 is 1 nM; with MDA-MB-468 it was 7.7 nM. Also, the results for the Papp in data set [2] (pH 5) and in data set [2] (pH 7.4) were 74.7 ×10⁻⁶ cm/s and 7.8 ×10⁻⁶ cm/s, respectively.

In the case of `CC[C@@]1(O)C(=O)OCc2c1cc1n(c2=O)Cc2c-1nc1cc(F)c(C)c3c1c2[C@@](C)(CO)CC3` (single isomer, unassigned) [Compound 3-28], the CLint scaled in data set [1] is 62.9 mL/min/kg; in data set [3], 53.8 mL/min/kg. In addition, the results for the half-life in data set [1] and in data set [3] were 61 min and 23 min, respectively. The IC50 came out at 1.3 nM with Jeko-1 and 9.9 nM in the data set on MDA-MB-468. In addition, the Papp in data set [2] (pH 5) stood at 64 ×10⁻⁶ cm/s; in data set [2] (pH 7.4), 8.4 ×10⁻⁶ cm/s.

As for `CC[C@@]1(O)C(=O)OCc2c1cc1n(c2=O)Cc2c-1nc1cc(F)c(C)c3c1c2[C@](C)(N(C)CCO)CC3` (single isomer, unassigned) [Compound 7-45, hydrochloride], the results for the CLint scaled in data set [1] and in data set [3] were 92.2 mL/min/kg and 137 mL/min/kg, respectively. The half-life in data set [1] was determined as 42 min; in data set [3] it was 9 min. For the same molecule, the IC50 was determined as 33.5 nM in the data set on Jeko-1 and 258 nM in the data set on MDA-MB-468. The Papp in data set [2] (pH 5) was determined as 56.6 ×10⁻⁶ cm/s; in data set [2] (pH 7.4), 7.5 ×10⁻⁶ cm/s.
